≈ marks a conversion by molar mass, not a printed value. Calls of active or inactive are those of the source. The rule behind the calls is not given here.
What was measured:
Acinetobacter baumannii [1] = experiment: Antimicrobial activity against Acinetobacter baumannii isolate J expressing beta-lactamase OXA-58 isolated from bedsore in presence of Sulbactam by vitek 2 system
Acinetobacter baumannii [2] = experiment: Antimicrobial activity against Acinetobacter baumannii isolate F expressing beta-lactamase OXA-164 isolated from tracheostoma of patient in presence of Sulbactam by vitek 2 system
Acinetobacter baumannii [3] = experiment: Antimicrobial activity against Acinetobacter baumannii isolate K expressing beta-lactamase OXA-58 isolated from blood culture of patient in presence of Sulbactam by vitek 2 system
Acinetobacter baumannii [4] = experiment: Antimicrobial activity against Acinetobacter baumannii isolate G expressing beta-lactamase OXA-58 isolated from tracheal secretion of patient in presence of Sulbactam by vitek 2 system
Acinetobacter baumannii [5] = experiment: Antimicrobial activity against Acinetobacter baumannii isolate H expressing beta-lactamase OXA-58 isolated from tracheal secretion of patient in presence of Sulbactam by vitek 2 system
Acinetobacter baumannii [6] = experiment: Antimicrobial activity against Acinetobacter baumannii isolate I expressing beta-lactamase OXA-58 isolated from tracheal secretion of patient in presence of Sulbactam by vitek 2 system
Acinetobacter baumannii [7] = experiment: Antimicrobial activity against Acinetobacter baumannii isolate L expressing beta-lactamase OXA-58 isolated from tracheal secretion of patient in presence of Sulbactam by vitek 2 system
Acinetobacter baumannii [8] = experiment: Antimicrobial activity against Acinetobacter baumannii isolate M expressing beta-lactamase OXA-58 isolated from tracheal secretion of patient in presence of Sulbactam by vitek 2 system
Acinetobacter baumannii [9] = experiment: Antimicrobial activity against Acinetobacter baumannii isolate A expressing beta-lactamase OXA-164 isolated from tracheal secretion of patient in presence of Sulbactam by vitek 2 system
Acinetobacter baumannii [10] = experiment: Antimicrobial activity against Acinetobacter baumannii isolate B expressing beta-lactamase OXA-164 isolated from tracheal secretion of patient in presence of Sulbactam by vitek 2 system
Acinetobacter baumannii [11] = experiment: Antimicrobial activity against Acinetobacter baumannii isolate C expressing beta-lactamase OXA-164 isolated from tracheal secretion of patient in presence of Sulbactam by vitek 2 system
Acinetobacter baumannii [12] = experiment: Antimicrobial activity against Acinetobacter baumannii isolate D expressing beta-lactamase OXA-164 isolated from tracheal secretion of patient in presence of Sulbactam by vitek 2 system
Acinetobacter baumannii [13] = experiment: Antimicrobial activity against Acinetobacter baumannii isolate E expressing beta-lactamase OXA-164 isolated from tracheal secretion of patient in presence of Sulbactam by vitek 2 system
Acinetobacter baumannii [14] = experiment: Antimicrobial activity against Acinetobacter baumannii isolate J expressing beta-lactamase OXA-58 isolated from bedsore by vitek 2 system
Acinetobacter baumannii [15] = experiment: Antimicrobial activity against Acinetobacter baumannii isolate F expressing beta-lactamase OXA-164 isolated from tracheostoma of patient by vitek 2 system
Acinetobacter baumannii [16] = experiment: Antimicrobial activity against Acinetobacter baumannii isolate K expressing beta-lactamase OXA-58 isolated from blood culture of patient by vitek 2 system
Acinetobacter baumannii [17] = experiment: Antimicrobial activity against Acinetobacter baumannii isolate G expressing beta-lactamase OXA-58 isolated from tracheal secretion of patient by vitek 2 system
Acinetobacter baumannii [18] = experiment: Antimicrobial activity against Acinetobacter baumannii isolate H expressing beta-lactamase OXA-58 isolated from tracheal secretion of patient by vitek 2 system
Acinetobacter baumannii [19] = experiment: Antimicrobial activity against Acinetobacter baumannii isolate I expressing beta-lactamase OXA-58 isolated from tracheal secretion of patient by vitek 2 system
Acinetobacter baumannii [20] = experiment: Antimicrobial activity against Acinetobacter baumannii isolate L expressing beta-lactamase OXA-58 isolated from tracheal secretion of patient by vitek 2 system
Acinetobacter baumannii [21] = experiment: Antimicrobial activity against Acinetobacter baumannii isolate M expressing beta-lactamase OXA-58 isolated from tracheal secretion of patient by vitek 2 system
Acinetobacter baumannii [22] = experiment: Antimicrobial activity against Acinetobacter baumannii isolate A expressing beta-lactamase OXA-164 isolated from tracheal secretion of patient by vitek 2 system
Acinetobacter baumannii [23] = experiment: Antimicrobial activity against Acinetobacter baumannii isolate B expressing beta-lactamase OXA-164 isolated from tracheal secretion of patient by vitek 2 system
Acinetobacter baumannii [24] = experiment: Antimicrobial activity against Acinetobacter baumannii isolate C expressing beta-lactamase OXA-164 isolated from tracheal secretion of patient by vitek 2 system
Acinetobacter baumannii [25] = experiment: Antimicrobial activity against Acinetobacter baumannii isolate D expressing beta-lactamase OXA-164 isolated from tracheal secretion of patient by vitek 2 system
Acinetobacter baumannii [26] = experiment: Antimicrobial activity against Acinetobacter baumannii isolate E expressing beta-lactamase OXA-164 isolated from tracheal secretion of patient by vitek 2 system
Acinetobacter baumannii [27] = experiment: Antimicrobial activity against Acinetobacter baumannii isolate J expressing beta-lactamase OXA-58 isolated from bedsore in presence of Tazobactam by vitek 2 system
Acinetobacter baumannii [28] = experiment: Antimicrobial activity against Acinetobacter baumannii isolate F expressing beta-lactamase OXA-164 isolated from tracheostoma of patient in presence of Tazobactam by vitek 2 system
Acinetobacter baumannii [29] = experiment: Antimicrobial activity against Acinetobacter baumannii isolate K expressing beta-lactamase OXA-58 isolated from blood culture of patient in presence of Tazobactam by vitek 2 system
Acinetobacter baumannii [30] = experiment: Antimicrobial activity against Acinetobacter baumannii isolate G expressing beta-lactamase OXA-58 isolated from tracheal secretion of patient in presence of Tazobactam by vitek 2 system
Acinetobacter baumannii [31] = experiment: Antimicrobial activity against Acinetobacter baumannii isolate H expressing beta-lactamase OXA-58 isolated from tracheal secretion of patient in presence of Tazobactam by vitek 2 system
Acinetobacter baumannii [32] = experiment: Antimicrobial activity against Acinetobacter baumannii isolate I expressing beta-lactamase OXA-58 isolated from tracheal secretion of patient in presence of Tazobactam by vitek 2 system
Acinetobacter baumannii [33] = experiment: Antimicrobial activity against Acinetobacter baumannii isolate L expressing beta-lactamase OXA-58 isolated from tracheal secretion of patient in presence of Tazobactam by vitek 2 system
Acinetobacter baumannii [34] = experiment: Antimicrobial activity against Acinetobacter baumannii isolate M expressing beta-lactamase OXA-58 isolated from tracheal secretion of patient in presence of Tazobactam by vitek 2 system
Acinetobacter baumannii [35] = experiment: Antimicrobial activity against Acinetobacter baumannii isolate A expressing beta-lactamase OXA-164 isolated from tracheal secretion of patient in presence of Tazobactam by vitek 2 system
Acinetobacter baumannii [36] = experiment: Antimicrobial activity against Acinetobacter baumannii isolate B expressing beta-lactamase OXA-164 isolated from tracheal secretion of patient in presence of Tazobactam by vitek 2 system
Acinetobacter baumannii [37] = experiment: Antimicrobial activity against Acinetobacter baumannii isolate C expressing beta-lactamase OXA-164 isolated from tracheal secretion of patient in presence of Tazobactam by vitek 2 system
Acinetobacter baumannii [38] = experiment: Antimicrobial activity against Acinetobacter baumannii isolate D expressing beta-lactamase OXA-164 isolated from tracheal secretion of patient in presence of Tazobactam by vitek 2 system
Acinetobacter baumannii [39] = experiment: Antimicrobial activity against Acinetobacter baumannii isolate E expressing beta-lactamase OXA-164 isolated from tracheal secretion of patient in presence of Tazobactam by vitek 2 system
Escherichia coli [40] = experiment: Antimicrobial activity against Escherichia coli NEB 5-alpha harboring plasmid WH1266 by Etest; assay type: functional
Escherichia coli [41] = experiment: Antimicrobial activity against Escherichia coli NEB 5-alpha harboring beta-lactamase OXA-164 by Etest; assay type: functional
Escherichia coli [42] = experiment: Antimicrobial activity against Escherichia coli NEB 5-alpha harboring beta-lactamase OXA-58 by Etest; assay type: functional
Acinetobacter baumannii [43] = experiment: Antimicrobial activity against Acinetobacter baumannii ATCC 19606 harboring plasmid WH1266 by Etest; assay type: functional; settings: ATCC 19606 = CIP 70.34 = JCM 6841
Acinetobacter baumannii [44] = experiment: Antimicrobial activity against Acinetobacter baumannii ATCC 19606 harboring beta-lactamase OXA-164 by Etest; assay type: functional; settings: ATCC 19606 = CIP 70.34 = JCM 6841
Acinetobacter baumannii [45] = experiment: Antimicrobial activity against Acinetobacter baumannii ATCC 19606 harboring beta-lactamase OXA-58 by Etest; assay type: functional; settings: ATCC 19606 = CIP 70.34 = JCM 6841
Acinetobacter baumannii [46] = experiment: Antimicrobial activity against Acinetobacter baumannii ATCC 17978 harboring plasmid WH1266 by Etest; assay type: functional
Acinetobacter baumannii [47] = experiment: Antimicrobial activity against Acinetobacter baumannii ATCC 17978 harboring beta-lactamase OXA-164 by Etest; assay type: functional
Acinetobacter baumannii [48] = experiment: Antimicrobial activity against Acinetobacter baumannii ATCC 17978 harboring beta-lactamase OXA-58 by Etest; assay type: functional
Acinetobacter baumannii [49] = experiment: Antimicrobial activity against Acinetobacter baumannii isolate J expressing beta-lactamase OXA-58 isolated from bedsore by Etest
Acinetobacter baumannii [50] = experiment: Antimicrobial activity against Acinetobacter baumannii isolate F expressing beta-lactamase OXA-164 isolated from tracheostoma of patient by Etest
Acinetobacter baumannii [51] = experiment: Antimicrobial activity against Acinetobacter baumannii isolate K expressing beta-lactamase OXA-58 isolated from blood culture of patient by Etest
Acinetobacter baumannii [52] = experiment: Antimicrobial activity against Acinetobacter baumannii isolate G expressing beta-lactamase OXA-58 isolated from tracheal secretion of patient by Etest
Acinetobacter baumannii [53] = experiment: Antimicrobial activity against Acinetobacter baumannii isolate H expressing beta-lactamase OXA-58 isolated from tracheal secretion of patient by Etest
Acinetobacter baumannii [54] = experiment: Antimicrobial activity against Acinetobacter baumannii isolate I expressing beta-lactamase OXA-58 isolated from tracheal secretion of patient by Etest
Acinetobacter baumannii [55] = experiment: Antimicrobial activity against Acinetobacter baumannii isolate L expressing beta-lactamase OXA-58 isolated from tracheal secretion of patient by Etest
Acinetobacter baumannii [56] = experiment: Antimicrobial activity against Acinetobacter baumannii isolate M expressing beta-lactamase OXA-58 isolated from tracheal secretion of patient by Etest
Acinetobacter baumannii [57] = experiment: Antimicrobial activity against Acinetobacter baumannii isolate A expressing beta-lactamase OXA-164 isolated from tracheal secretion of patient by Etest
Acinetobacter baumannii [58] = experiment: Antimicrobial activity against Acinetobacter baumannii isolate B expressing beta-lactamase OXA-164 isolated from tracheal secretion of patient by Etest
Acinetobacter baumannii [59] = experiment: Antimicrobial activity against Acinetobacter baumannii isolate C expressing beta-lactamase OXA-164 isolated from tracheal secretion of patient by Etest
Acinetobacter baumannii [60] = experiment: Antimicrobial activity against Acinetobacter baumannii isolate D expressing beta-lactamase OXA-164 isolated from tracheal secretion of patient by Etest
Acinetobacter baumannii [61] = experiment: Antimicrobial activity against Acinetobacter baumannii isolate E expressing beta-lactamase OXA-164 isolated from tracheal secretion of patient by Etest

CC1(C)S[C@@H]2[C@H](NC(=O)[C@H](N)c3ccccc3)C(=O)N2[C@H]1C(=O)O
MIC (Acinetobacter baumannii [1]): inactive
MIC (Acinetobacter baumannii [2]): inactive
MIC (Acinetobacter baumannii [3]): inactive
MIC (Acinetobacter baumannii [4]): inactive
MIC (Acinetobacter baumannii [5]): inactive
MIC (Acinetobacter baumannii [6]): inactive
MIC (Acinetobacter baumannii [7]): inactive
MIC (Acinetobacter baumannii [8]): inactive
MIC (Acinetobacter baumannii [9]): inactive
MIC (Acinetobacter baumannii [10]): inactive
MIC (Acinetobacter baumannii [11]): inactive
MIC (Acinetobacter baumannii [12]): inactive
MIC (Acinetobacter baumannii [13]): inactive

CCN1CCN(C(=O)N[C@@H](C(=O)N[C@@H]2C(=O)N3[C@@H]2SC(C)(C)[C@@H]3C(=O)O)c2ccccc2)C(=O)C1=O
MIC (Acinetobacter baumannii [14]): inactive
MIC (Acinetobacter baumannii [15]): inactive
MIC (Acinetobacter baumannii [16]): inactive
MIC (Acinetobacter baumannii [17]): inactive
MIC (Acinetobacter baumannii [18]): inactive
MIC (Acinetobacter baumannii [19]): inactive
MIC (Acinetobacter baumannii [20]): inactive
MIC (Acinetobacter baumannii [21]): inactive
MIC (Acinetobacter baumannii [22]): inactive
MIC (Acinetobacter baumannii [23]): inactive
MIC (Acinetobacter baumannii [24]): inactive
MIC (Acinetobacter baumannii [25]): inactive
MIC (Acinetobacter baumannii [26]): inactive
MIC (Acinetobacter baumannii [27]): inactive
MIC (Acinetobacter baumannii [28]): inactive
MIC (Acinetobacter baumannii [29]): inactive
MIC (Acinetobacter baumannii [30]): inactive
MIC (Acinetobacter baumannii [31]): inactive
MIC (Acinetobacter baumannii [32]): inactive
MIC (Acinetobacter baumannii [33]): inactive
MIC (Acinetobacter baumannii [34]): inactive
MIC (Acinetobacter baumannii [35]): inactive
MIC (Acinetobacter baumannii [36]): inactive
MIC (Acinetobacter baumannii [37]): inactive
MIC (Acinetobacter baumannii [38]): inactive
MIC (Acinetobacter baumannii [39]): inactive

C[C@@H](O)[C@H]1C(=O)N2C(C(=O)O)=C(S[C@@H]3CN[C@H](C(=O)N(C)C)C3)[C@H](C)[C@H]12 [MEROPENEM]
MIC (Escherichia coli [40]): 0.012 µg/mL (≈ 0.0313 µM)
MIC (Escherichia coli [41]): 0.032 µg/mL (≈ 0.0834 µM)
MIC (Escherichia coli [42]): 0.032 µg/mL (≈ 0.0834 µM)
MIC (Acinetobacter baumannii [43]): 0.19 µg/mL (≈ 0.495 µM)
MIC (Acinetobacter baumannii [44]): 32 µg/mL (≈ 83.4 µM)
MIC (Acinetobacter baumannii [45]): > 32 µg/mL
MIC (Acinetobacter baumannii [46]): 0.25 µg/mL (≈ 0.652 µM)
MIC (Acinetobacter baumannii [47]): > 32 µg/mL
MIC (Acinetobacter baumannii [48]): > 32 µg/mL
MIC (Acinetobacter baumannii [49]): ≥ 64 µg/mL
MIC (Acinetobacter baumannii [14]): 8 µg/mL (≈ 20.9 µM)
MIC (Acinetobacter baumannii [50]): 16 µg/mL (≈ 41.7 µM)
MIC (Acinetobacter baumannii [51]): ≥ 64 µg/mL
MIC (Acinetobacter baumannii [52]): ≥ 64 µg/mL
MIC (Acinetobacter baumannii [53]): ≥ 64 µg/mL
MIC (Acinetobacter baumannii [54]): ≥ 64 µg/mL
MIC (Acinetobacter baumannii [55]): ≥ 64 µg/mL
MIC (Acinetobacter baumannii [56]): ≥ 64 µg/mL
MIC (Acinetobacter baumannii [57]): 32 µg/mL (≈ 83.4 µM)
MIC (Acinetobacter baumannii [58]): 32 µg/mL (≈ 83.4 µM)
MIC (Acinetobacter baumannii [59]): 8 µg/mL (≈ 20.9 µM)
MIC (Acinetobacter baumannii [60]): 32 µg/mL (≈ 83.4 µM)
MIC (Acinetobacter baumannii [61]): 32 µg/mL (≈ 83.4 µM)
MIC (Acinetobacter baumannii [15]): 4 µg/mL (≈ 10.4 µM)
MIC (Acinetobacter baumannii [16]): 8 µg/mL (≈ 20.9 µM)
MIC (Acinetobacter baumannii [17]): ≥ 16 µg/mL
MIC (Acinetobacter baumannii [18]): 8 µg/mL (≈ 20.9 µM)
MIC (Acinetobacter baumannii [19]): 8 µg/mL (≈ 20.9 µM)
MIC (Acinetobacter baumannii [20]): ≥ 16 µg/mL
MIC (Acinetobacter baumannii [21]): 8 µg/mL (≈ 20.9 µM)
MIC (Acinetobacter baumannii [22]): 2 µg/mL (≈ 5.22 µM)
MIC (Acinetobacter baumannii [23]): 4 µg/mL (≈ 10.4 µM)
MIC (Acinetobacter baumannii [24]): 8 µg/mL (≈ 20.9 µM)
MIC (Acinetobacter baumannii [25]): 8 µg/mL (≈ 20.9 µM)
MIC (Acinetobacter baumannii [26]): 8 µg/mL (≈ 20.9 µM)

Reference: ChEMBL document CHEMBL1687815, “In vivo selection of a missense mutation in adeR and conversion of the novel blaOXA-164 gene into blaOXA-58 in carbapenem-resistant Acinetobacter baumannii isolates from a hospitalized patient” (2010)
